One data set addresses PTP1B (Homo sapiens (Human), UniProt P18031). The data set can be described thus: PTP1B-catalyzed pNPP hydrolysis. Type of data set: biochemical. Conditions: pNPP substrate. How it is done: The catalytic domain of human Eya2 (“hEYA2(ED)”) was similarly sub-cloned as a polyhistidine fusion construct in the vector pDEST-527. Fusion protein was purified by NiNTA chromatography and followed by size-exclusion chromatography over a Superdex-75 column. The relative purity of protein samples was determined using SDS-PAGE. PTP1B was purified as described previously (Rayapureddi, J. P. et al. Nature 426, 295-298 (2003), incorporated by reference in its entirety).
An inhibitory assay was conducted using the previously described p-nitrophenylphosphate assay (Rayapureddi, J. P. et al. Nature 426, 295-298 (2003)). Briefly, ED was incubated in a reaction mixture containing 20 mM MES pH 6, 2 mM MgCl2, 125 μM inhibitor, 3.4 mM para-nitrophenol phosphate (pNPP) and 0.01 μg/μL enzyme.
PTP1B is a classical Cys-based tyrosine phosphatase.

For data set [1], the system named is HUVECs. The experiment in a line: HUVEC tubulogenesis on Matrigel. Type of data set: cell-based, human. Particulars: for tube formation on Matrigel: HUVEC. The source says:
Primary endothelial cells (ECs) on basement membrane rapidly attach, align themselves and form capillary-like tubules with lumens and tight cell-cell contacts. […] To better understand the stage in matrigel tube-formation affected by compound 1g cells plated on growth-factor reduced matrigel and treated with either vehicle or compound 1g were followed. Differences become apparent within the first two hours and were clearly visible at the 6-hour time-point. The ECs are much less organized in the presence of compound 1g. […] The effect of compound 1g on tube formation was attenuated in the presence of high concentrations of fetal bovine serum (FBS), likely reflecting non-specific protein binding.
The EYA inhibitors were also tested in tubulogenesis assays. The tubulogenesis assays were performed in 15-well micro-slide (ibidi LLC, Verona Wis.), using growth factor-reduced matrigel (BD Bioscience, Billerica, Mass.). The matrix was prepared by loading 10 μl of matrigel in each micro-slide well and allowing it to solidify for 30 minutes at 37° C. HUVECs were trypsinized and resuspended at 100.000 cell/ml in EBM+2.5% FBS. 50 μl (5,000 cell) were loaded on top of the solidified matrigel and the preparation was incubated for 20 hours at 37° C. in a humidified incubator in a 5% CO2 atmosphere. Bright field images were taken using an inverted microscope at 2.5× magnification, which allowed imaging of the whole well in two pictures that were later merged in Photoshop. Tubular structures were traced and counted using NeuroJ (NIH, USA). In experiments with inhibitor, the inhibitor was added to the cell suspension before loading. Each sample was loaded in triplicate, and each treatment was repeated for reproducibility.

Data set [2] deals with HUVECs. The data set can be described thus: HUVEC proliferation (MTT). Conditions: 5 μM, 24 hours. Type of data set: cell-based, human.
The subject of data set [3] is HUVECs. The experiment in a line: HUVEC transwell migration. Type of data set: cell-based, human. Conditions: 5 μM. The source says:
(§1) In order to determine whether EYA3 knock down would affect cell migration, a modified Boyden chamber assay was used to measure HUVEC migration. Briefly, human umbilical vein endothelial cells (HUVECs) were purchased from Lonza (Walkersville, Md.) and maintained in the endothelial cell growth medium (PromoCell, Hleidelberg, Germany), under a 5% CO2 atmosphere. MCF10A cells from ATCC were stably transfected with either pcDNA 3.2N5-DEST (vector control), V5-EYA2 or V5-EYA2(D250N). Transwell migration experiments were performed as previously described (Pandey, R. N. et al. Oncogene 29, 3715-3722, (2010)).

The next data set has as its system MCF10A(EYA2) cells. The data set can be described thus: Transwell migration of MCF10A-EYA2 cells. Type of data set: cell-based. Conditions: 7.5 μM.
Description: The tyrosine phosphatase activity of Eya3 and Eya2 promotes single cell motility in breast cancer cells (Pandey, R. N. et al. Oncogene (2010) 29:3715-3722, incorporated by reference in its entirety). EYA2 is over-expressed in breast cancers and is associated with increased metastasis and a poorer outcome (Farabaugh, et al. Oncogene (2011) 259). […] Overexpression of EYA2, but not the tyrosine-phosphatase dead mutant, promoted cell motility (FIG. 2a). […] This effect was dose-dependent (FIG. 2d) and compound (1a) was able to reduce cell motility by over 50% at the lowest concentration (1 μM) tested.
as §1

The test system of another data set is mouse aortic rings. The experiment in a line: Aortic ring sprouting assay. Format: cell-based. How it is done: Additionally, the effect of compounds 1d, 1f, 1h, 1i, 1g, 2 and 2a on cell proliferation, migration, tube formation, micro-vessel branching, and perivascular recruitment using an aortic ring sprouting assay. When slices of mouse aorta are cultured in collagen gels there is typically a lag phase for the first 4 days followed by linear sprouting of endothelial cells. By day 6, branching is observed. All the test compounds were initially assayed at 7.5 μM and the number of branch-points counted. When there was a severe effect (no visible sprouting), or when there was no apparent effect, other doses were tested to establish a dose-dependence. All of the compounds assayed were able to attenuate aortic ring sprouting. There was a strong reduction in initial sprouting and some attenuation of branching. With the exception of 2a, in all cases where there was sprouting, the length of sprouts was shorter than in the controls.
Endothelial cell migration can also be studied […] using the aortic ring assay in which sprouting angiogenesis is monitored by the formation of vascular sprouts outside the wall of mouse aortic rings incubated in collagen matrix and stimulated by VEGF (Gerhardt, H., et al. EXS, 3-15 (2005), hereby incorporated by reference in its entirety). Briefly, mice were obtained from the Cincinnati Children's veterinary service and handled according to the institutional animal care and use protocol. […] Mice were 4 to 6 weeks old female C57BL16, and aortic ring explants were cultured at 37° C. in a humidified incubator under a 5% CO2 atmosphere.
Each inhibitor was serially diluted (between 0.25 mM and 7.5 mM) to stocks of 1000× the working concentrations in sterile 100% DMSO in order to achieve an equal final concentration of DMSO (0.1% v/v) in all culture conditions. For the experiments, the compounds were diluted in EBM containing 2.5% FBS, penicillin/streptomycin and 20 ng/ml VEGF165 (R&D Systems, Minneapolis, Minn.). Each compound was applied from the first day of culture over a 10-day period with medium change every two days. In all experiments, the vehicle (DMSO, 0.1%) was used as control. The sprouting density was derived from counting the number of branches per ring, and the extent of angiogenic sprouting was estimated by measuring the total surface area covered by the vessels as illustrated in FIG. 7.

Another data set relates to retinal vasculature. The data set can be described thus: Mouse model of oxygen-induced retinopathy. Format: in vivo, mice. Conditions: 100 or 50 pmoles injected at P12, analyzed at P16. The source says: The mouse model of oxygen-induced retinopathy mimics the retinopathy characteristic of proliferative retiopathy conditions such as retinopathy of prematurity and diabetic retinopathy. […] The resulting retinal hypoxia after day 12, when pups were brought back to 20% O2, induced excessive hypoxia-driven angiogenesis. A characteristic large avascular area at the center of the retina and excessive regrowth of superficial vessels (pre-retinal neovascular tufts) in the mid-peripheral region was observed. […] In contrast, inhibition of either Vegf or Vegfr2 in OIR experiments suppresses both neovascular tuft formation and revascularization.

For data set [4], the system named is developing zebrafish vasculature. The data set can be described thus: Zebrafish model of angiogenesis. Type of data set: in vivo. Conditions: exposure from 5.25 hpf, analysis at 24 hpf; compound 1 at 0.25 μM. How it is done: Embryos (FLK1-GFP trangenic) were maintained in fish water until the 50% epiboly stage (5.25 hpf) and were transferred into wells of 24-well plate containing the inhibitors in fish water. The analysis for vascular defects was performed after the 24 hpf stage, and embryos were imaged using a fluorescence microscope.
Transgenic fish expressing EGFP in endothelial cells (Tg(flk1:EGFP)) were used to facilitate visualization of the developing vasculature. In control experiments embryos were treated with 0.1% DMSO (vehicle). At the time of analyses (24 hpf) developing vessels normally migrated from the lateral plate mesoderm to the midline and formed the vascular cord, subsequently forming the dorsal aorta and the posterior cardinal vein and followed by the formation of intersegmental vessels at designated branch points (FIG. 6b).

For a further data set, the target named is EYA3 (Homo sapiens (Human), UniProt Q99504). The experiment in a line: pNPP assay, full-length human recombinant EYA3. Format: biochemical. Conditions: pNPP substrate, full-length EYA3. An excerpt:
The catalytic domain of mouse Eya3 (“ED”, comprising residues 223-510 of Eya3) was purified as described by Rayapureddi, J. P. et al. (FEBS Lett 580, 3853-3859 (2006), incorporated by reference in its entirety). For full-length Eya3 (“hEYA3”), human Eya3 isoform 2 (representing the major species identified in human cell lines by mass spectrometry, expressed as residues 127-573 of NM_001990, isoform 1) was sub-cloned into pDEST565 to express a poly-histidine-Glutathione-S-transferase (His-GST) tagged fusion protein with a TVMV protease site. The protein was purified by glutathione-S-transferase affinity chromatography followed by TVMV cleavage, Ni-NTA chromatography, and finally size exclusion chromatography. […]
The compounds were then tested using full-length human recombinant, purified EYA3 and pNPP as a substrate. Compounds were dissolved in DMSO and diluted as needed. […] Reactions were incubated at 30° C. for 30 minutes and quenched with 100 mM EDTA pH 10. IC50 values were then calculated directly from regression curves using PRISM software. All reported values are the mean of two independent experiments.

In data set [5] the test system is HUVECs. The experiment in a line: HUVEC cell viability assay (WST-8). Conditions: 3 days of exposure. Format: cell-based, human. How it is done:
Additionally, a cell viability assay was conducted over 3 days of exposure to test compounds 1, 1a and 1g in order to assess both the possibility of immediate cellular toxicity as well as any effect on cell proliferation. HUVECs were seeded and equilibrated for 24 hours before addition of the test compounds. Cellular metabolic activity was measured at defined time-points using the tetrazolium dye WST-8 to quantify NAD(P)H-dependent cellular oxidoreductase enzyme activity.

The subject of the next data set is HUVEC cells. The data set can be described thus: Scratch wound healing assay, HUVEC. Format: cell-based, human. Particulars: counted 22 hours later. The protocol:
Cells were plated and grown to confluency. Scratch wounds were made using a sterile pipette tip, the medium changed to remove any cellular debris, and fresh medium with either vehicle or test compound was introduced. The number of cells that migrated into the cleared space was counted 22 hours later.

EYA3, sequence (Q99504 127-573): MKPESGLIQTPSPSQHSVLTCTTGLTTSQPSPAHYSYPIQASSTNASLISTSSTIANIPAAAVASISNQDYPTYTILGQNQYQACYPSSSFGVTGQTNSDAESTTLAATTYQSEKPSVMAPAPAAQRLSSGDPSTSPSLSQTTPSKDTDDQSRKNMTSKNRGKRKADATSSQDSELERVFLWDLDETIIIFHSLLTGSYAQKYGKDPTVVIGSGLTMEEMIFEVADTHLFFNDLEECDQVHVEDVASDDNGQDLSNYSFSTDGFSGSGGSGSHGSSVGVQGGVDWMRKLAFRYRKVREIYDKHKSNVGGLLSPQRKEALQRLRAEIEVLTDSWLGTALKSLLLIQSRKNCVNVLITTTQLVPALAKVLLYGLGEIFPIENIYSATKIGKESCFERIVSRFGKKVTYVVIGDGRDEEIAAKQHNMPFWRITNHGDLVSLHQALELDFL
PTP1B, sequence (P18031 whole entry, species assumed, the tested form may be a part): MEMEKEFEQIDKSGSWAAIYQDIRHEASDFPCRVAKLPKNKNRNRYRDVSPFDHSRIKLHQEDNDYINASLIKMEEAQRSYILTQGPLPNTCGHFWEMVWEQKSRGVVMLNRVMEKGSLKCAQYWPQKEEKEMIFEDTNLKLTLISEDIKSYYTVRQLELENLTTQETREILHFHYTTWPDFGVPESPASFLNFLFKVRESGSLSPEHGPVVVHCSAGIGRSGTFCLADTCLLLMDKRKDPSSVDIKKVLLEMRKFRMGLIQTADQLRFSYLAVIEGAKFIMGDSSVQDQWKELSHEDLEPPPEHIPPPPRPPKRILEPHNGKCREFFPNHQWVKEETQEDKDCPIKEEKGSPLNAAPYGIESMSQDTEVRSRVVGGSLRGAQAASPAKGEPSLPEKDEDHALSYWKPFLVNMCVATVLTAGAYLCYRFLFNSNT

Consider `CCCCc1oc2ccccc2c1C(=O)c1ccc(O)cc1` [Compound 1b], for which the IC50 (usually the midpoint of a concentration-inhibition curve) against PTP1B was found to be 71.4 µM. The tubulogenesis inhibition result in the data set on HUVECs [1] (7.5 μM) is recorded as “effective at the highest concentrations tested”. For the same compound, the HUVEC cell proliferation entry with HUVECs [2] is on record as “no effect on cell proliferation”. The HUVEC cell motility result with HUVECs [3] is given as “attenuated HUVEC cell motility”. For the same compound, in the data set on MCF10A(EYA2) cells, the cell migration result is “significantly inhibited cell migration”. The “sprout length and microvascular density of aortic rings” value with mouse aortic rings (5 μM, 10 days) is “shorter sprouts and significantly lower microvascular density”. For the same compound, the “formation of neovascular tufts” value with retinal vasculature was “Significant reduction in the formation of neovascular tufts”. In [4], the “intersegmental vessels in zebrafish embryos” value was “reduced the number of intersegmental vessels, but were less potent”.

Turning to `CC(O)CCc1oc2ccccc2c1C(=O)c1cc(I)c(O)c(I)c1` (centres unmarked) [Compound 2a], the “tube formation on Matrigel” value in the data set on HUVECs [1] was “did not show significant attenuation of tube formation”.

As to `CCc1oc2ccc(O)cc2c1C(=O)c1cc(Br)c(O)c(Br)c1` [Compound 1h], the “tube formation on Matrigel” value with HUVECs [1] is reported as “did not show significant attenuation of tube formation”. For the same compound, the IC50 at EYA3 is 40.8 µM.

Turning to `Cc1oc2ccccc2c1C(=O)c1ccc(O)c(I)c1` [Compound 1f], the “tube formation on Matrigel” value in the data set on HUVECs [1] is listed as “did not show significant attenuation of tube formation”. Besides, the concentration for half-maximal inhibition (IC50) at EYA3 stood at 17.5 µM.

In the case of `CCCCc1oc2ccccc2c1C(=O)c1cc(I)c(O)c(I)c1` [Compound 2], the “tube formation on Matrigel” value in the data set with HUVECs [1] is “did not show significant attenuation of tube formation”.

With `CC(O)c1oc2ccccc2c1C(=O)c1cc(Br)c(O)c(Br)c1` (centres unmarked) [Compound 1i], the IC50 on EYA3 was 41.9 µM.

Turning to `CCc1oc2cc(O)ccc2c1C(=O)c1cc(Br)c(O)c(Br)c1` [Compound 1g], in the data set on HUVECs [5], the “reduction in cell proliferation” value is on record as “over 50%”. Besides, in the data set with HUVECs [1], the “tube formation on Matrigel” value was “much stronger inhibitory effect than compound 1a”. Besides, the aortic ring sprouting entry in the data set on mouse aortic rings (initially assayed at 7.5 μM) is on record as “most potent inhibitor”. The IC50 on EYA3 stood at 27.2 µM. Besides, the “reduction of cell migration” value with HUVEC cells is about 80%.

For `CC(O)Cc1oc2ccccc2c1C(=O)c1cc(I)c(O)c(I)c1` (centres unmarked) [Compound 1e], the IC50 at EYA3 is 13.8 µM.

Consider `CCc1oc2ccccc2c1C(=O)c1cc(I)c(O)c(I)c1` [Compound 1c], for which the IC50 at EYA3 amounted to 3.4 µM.

On to `Cc1oc2ccccc2c1C(=O)c1ccc(O)cc1` [Compound 1k], for which the half-maximal inhibitory concentration (IC50) at EYA3 stood at 81.1 µM.

On to `CCc1oc2ccc(O)cc2c1C(=O)c1ccc(O)cc1` [Compound 1j], for which the IC50 at EYA3 came to 73.1 µM.

Turning to `Cc1oc2ccccc2c1C(=O)c1cc(I)c(O)c(I)c1` [Compound 1d], in the data set with HUVECs [1], the “tube formation on Matrigel” value was “did not show significant attenuation of tube formation”. Besides, the IC50 on EYA3 is 8.3 µM.

The values above are taken from patent US9725430B2, “Use of small molecule inhibitors targeting EYA tyrosine phosphatase” (Children's Hospital Medical Center, priority 2013, dated 2017).
